The values below come from patent US20230041743A1, “1,8-NAPHTHYRIDIN-2-ONE COMPOUNDS FOR THE TREATMENT OF AUTOIMMUNE DISEASE” (Hoffmann-La Roche Inc., priority 2019, published 2023).

SMILES strings stand for the structures.

This assay addresses T1, human TLR9 (Homo sapiens, UniProt Q9NR96).
T1 construct: host or cells: HEK293 (HEK-Blue hTLR9)
T1 sequence (Q9NR96 26-1032): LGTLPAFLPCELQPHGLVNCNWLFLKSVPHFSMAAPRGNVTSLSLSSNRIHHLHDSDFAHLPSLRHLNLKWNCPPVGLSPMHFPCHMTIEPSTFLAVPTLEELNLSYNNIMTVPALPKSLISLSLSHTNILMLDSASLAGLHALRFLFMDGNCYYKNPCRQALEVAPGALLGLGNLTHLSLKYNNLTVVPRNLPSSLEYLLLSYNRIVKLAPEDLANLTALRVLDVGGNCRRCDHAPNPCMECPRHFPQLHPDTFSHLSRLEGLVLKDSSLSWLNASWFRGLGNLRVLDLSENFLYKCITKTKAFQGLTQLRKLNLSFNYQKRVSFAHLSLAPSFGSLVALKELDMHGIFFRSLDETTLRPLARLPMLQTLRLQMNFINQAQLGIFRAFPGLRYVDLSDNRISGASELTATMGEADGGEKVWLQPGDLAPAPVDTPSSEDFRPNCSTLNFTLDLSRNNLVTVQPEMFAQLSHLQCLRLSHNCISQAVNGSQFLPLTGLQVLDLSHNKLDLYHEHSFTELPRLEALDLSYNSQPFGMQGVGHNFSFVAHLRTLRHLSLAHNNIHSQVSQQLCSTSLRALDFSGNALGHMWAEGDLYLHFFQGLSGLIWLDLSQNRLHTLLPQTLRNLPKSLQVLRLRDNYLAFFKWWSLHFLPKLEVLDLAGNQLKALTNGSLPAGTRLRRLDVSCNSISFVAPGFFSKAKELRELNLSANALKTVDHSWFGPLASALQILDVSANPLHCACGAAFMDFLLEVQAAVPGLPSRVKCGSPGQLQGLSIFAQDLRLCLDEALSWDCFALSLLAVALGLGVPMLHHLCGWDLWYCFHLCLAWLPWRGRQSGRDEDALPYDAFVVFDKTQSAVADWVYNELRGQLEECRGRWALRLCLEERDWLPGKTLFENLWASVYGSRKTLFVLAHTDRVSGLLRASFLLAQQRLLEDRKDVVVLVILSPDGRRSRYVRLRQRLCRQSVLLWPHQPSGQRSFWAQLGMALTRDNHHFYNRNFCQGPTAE
Put plainly: HEK293-Blue-hTLR-9 cells assay (SEAP reporter, ODN2006 stimulation). In kind it is cell-based. The following applies: HEK293-Blue-hTLR9 cells, ODN2006 ligand, 20 hrs incubation; read-out: HEK/hTLR9 IC50. The text has this: HEK293-Blue-hTLR-9 Cells Assay:
A stable HEK293-Blue-hTLR-9 cell line was purchased from InvivoGen (Cat. #: hkb-htlr9, San Diego, Calif., USA). These cells were originally designed for studying the stimulation of human TLR9 by monitoring the activation of NF-κB. A SEAP (secreted embryonic alkaline phosphatase) reporter gene was placed under the control of the IFN-β minimal promoter fused to five NF-κB and AP-1-binding sites. The SEAP was induced by activating NF-κB and AP-1 via stimulating HEK-Blue hTLR9 cells with TLR9 ligands. Therefore the reporter expression was declined by TLR9 antagonist under the stimulation of a ligand, such as ODN2006 (Cat. #: tlrl-2006-1, Invivogen, San Diego, Calif., USA), for incubation of 20 hrs. The cell culture supernatant SEAP reporter activity was determined using QUANTI-Blue™ kit (Cat. #: rep-qb1, Invivogen, San Diego, Calif., USA) at a wavelength of 640 nm, a detection medium that turns purple or blue in the presence of alkaline phosphatase.
HEK293-Blue-hTLR9 cells were incubated at a density of 250,000˜450,000 cells/mL in a volume of 170 μL in a 96-well plate in Dulbecco's Modified Eagle's medium (DMEM) containing 4.5 g/L glucose, 50 U/mL penicillin, […], 2 mM L-glutamine, 10% (v/v) heat-inactivated fetal bovine serum with addition of 20 μL test compound in a serial dilution in the presence of final DMSO at 1% and 10 μL of 20 uM ODN2006 in above DMEM, perform incubation under 37° C. in a CO2 incubator for 20 hrs. Then 20 μL of the supernatant from each well was incubated with 180 μL Quanti-blue substrate solution at 37° C. for 2 h and the absorbance was read at 620˜655 nm using a spectrophotometer. The signaling pathway that TLR9 activation leads to downstream NF-κB activation has been widely accepted, and therefore similar reporter assay was modified for evaluating TLR9 antagonist.
Turning to `C[C@@H]1CN(c2cc(=O)n(C)c3ncccc23)C[C@@H]2c3ccc([C@H]4C[C@H]5COC[C@@H](C4)N5)cc3CN12` [Example 28A, 4-[(4R,10bS)-4-methyl-8-(endo-3-oxa-9-azabicyclo[3.3.1]nonan-7-yl)-3,4,6,10b-tetrahydro-1H-pyrazino[2,1-a]isoindol-2-yl]-1-methyl-1,8-naphthyridin-2-one], the IC50 was found to be 153 nM. Consider `C[C@@H]1CN(c2cc(=O)n(C)c3ncccc23)C[C@@H]2c3ccc([C@@H]4C[C@H]5COC[C@@H](C4)N5)cc3CN12` [Example 28B, 4-[(4R,10bS)-4-methyl-8-(exo-3-oxa-9-azabicyclo[3.3.1]nonan-7-yl)-3,4,6,10b-tetrahydro-1H-pyrazino[2,1-a]isoindol-2-yl]-1-methyl-1,8-naphthyridin-2-one], for which the IC50 is 255 nM.

With `CCn1c(=O)cc(N2C[C@@H](C)N3Cc4cc(N5C[C@@H](N)[C@H](OC)C5)ccc4[C@H]3C2)c2cccnc21` [Example 29, 4-[(4R,10bS)-8-[(3R,4R)-3-amino-4-methoxy-pyrrolidin-1-yl]-4-methyl-3,4,6,10b-tetrahydro-1H-pyrazino[2,1-a]isoindol-2-yl]-1-ethyl-1,8-naphthyridin-2-one], the IC50 worked out at 340 nM.
